Results: US20100292509A1, “VEGFC PRODUCTION PROMOTER” (Shiseido Company, Ltd, priority 2008, published 2010)

Tested on: VEGFC
Settings: HaCaT cells; 7% by weight drug solution added at 1/100, 1/1000 or 1/10000 the amount of culture liquid; 48 hours; solvent control assigned 100; FIG. 1
Method: HaCaT cells, which are cultured cells derived from human epidermis (German Cancer Research Center, Heidelberg, Germany), were cultured in DMEM containing 10% FBS and seeded into a 24-well plate at 15×10^4 cells per well. After about 24 hours, the medium was replaced with serum-free DMEM followed by culturing for 24 hours. Subsequently, a solution of a candidate drug dissolved in water to a concentration of 7% by weight was added in an amount equal to 1/100, 1/1000 or 1/10000 the amount of culture liquid followed by additional culturing. 48 hours after adding the drug, the culture supernatant was recovered and the amount of VEGFC in the culture supernatant was quantified by ELISA (R&D Systems) in accordance with the protocol. In addition, Alamar Blue (TREK Diagnostic Systems) was added to the cells following recovery of culture supernatant followed by measurement of the number of cells as fluorescence intensity (Ex: 544 nm, Em: 590 nm). The amount of VEGFC expressed per cell was determined by dividing the amount of VEGFC in the culture supernatant by the fluorescence value of the Alamar Blue. A solvent in the form of 70% EtOH was added to the cells instead of drug for use as a control, and the value thereof was assigned a value of 100. In addition, 5% FBS was used as a positive control.

## CNC(=O)[C@H]1CC[C@H](CN)CC1.Cl [tranexamic acid methylamide hydrochloride]
  VEGFC induction activity (amount of VEGFC expressed per cell): dose-dependent VEGFC induction activity that exceeded that of the control
